Activity calls are given as the source filed them.
Experiments:
Protein Wnt-3a = Protein Wnt-3a (Mus musculus, UniProt P27467); assay: antagonism of Wnt3a pathway luciferase reporter – Wnt-LIGHT cells, luminescence, selectivity assay for Gli-SUFU antagonist project, dose response (AID 651570); format: functional; conditions: read-out: IC50_Mean;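 further: Wnt-LIGHT reporter cells stimulated with conditioned medium from Wnt3a-producing cells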
[1] = bead-based luminescence quenchers, dual-tagged ARNT – biochemical, AlphaScreen, cherry-pick, artefact control for ARNT-TACC3 interaction inhibitor project, dose response (AID 651705); format: functional;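 further: AlphaScreen bead proximity signal that flags compounds interfering with the detection technology; potency reflects signal decrease which marks the compound as an assay artifact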
[2] = molecular target: T1, Methionyl-tRNA synthetase, putative (Trypanosoma brucei brucei, UniProt Q38C91); format: functional, Trypanosoma brucei brucei strain 927/4 GUTat10.1
T1 sequence (Q38C91 whole entry): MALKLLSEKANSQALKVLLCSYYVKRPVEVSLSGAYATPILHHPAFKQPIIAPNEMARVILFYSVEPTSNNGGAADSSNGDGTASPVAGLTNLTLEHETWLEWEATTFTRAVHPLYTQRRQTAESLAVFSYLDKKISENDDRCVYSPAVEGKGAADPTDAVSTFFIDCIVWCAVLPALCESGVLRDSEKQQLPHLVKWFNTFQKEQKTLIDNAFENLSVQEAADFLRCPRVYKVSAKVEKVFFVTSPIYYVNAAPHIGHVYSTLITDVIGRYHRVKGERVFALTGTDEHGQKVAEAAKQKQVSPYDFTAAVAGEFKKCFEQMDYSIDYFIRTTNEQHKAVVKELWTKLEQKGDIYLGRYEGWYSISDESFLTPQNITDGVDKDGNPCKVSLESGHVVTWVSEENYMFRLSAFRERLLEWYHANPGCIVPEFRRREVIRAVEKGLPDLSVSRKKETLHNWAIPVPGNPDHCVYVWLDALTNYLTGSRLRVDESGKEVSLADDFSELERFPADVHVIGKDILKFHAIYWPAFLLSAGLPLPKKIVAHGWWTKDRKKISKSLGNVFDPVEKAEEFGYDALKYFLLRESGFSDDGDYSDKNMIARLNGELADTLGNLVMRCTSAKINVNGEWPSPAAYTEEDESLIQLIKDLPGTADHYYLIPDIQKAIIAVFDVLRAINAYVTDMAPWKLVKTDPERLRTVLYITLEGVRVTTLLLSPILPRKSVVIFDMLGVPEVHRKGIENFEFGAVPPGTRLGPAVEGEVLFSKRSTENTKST

HEK293 [3] = assay: cells; conditions: Homo sapiens
[4] = Counterscreen for inhibitors of Trypanosoma brucei methionyl tRNA synthetase (MetRS): Luminescence-based cell-based high throughput dose response assay to identify compounds that are cytotoxic to Jurkat human T lymphocyte cells.; format: functional
HEK293 [5] = assay: cells; conditions: Homo sapiens; remark: listed apart in the source
[6] = molecular target: T1, Methionyl-tRNA synthetase, putative; format: functional, Trypanosoma brucei brucei strain 927/4 GUTat10.1; remark: listed apart in the source
Melanocortin receptor 4 [7] = molecular target: T2, Melanocortin receptor 4 (Homo sapiens, UniProt P32245); format: functional, cell-based;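 further: Cell-based assay with luminescence read-out, confirmatory dose-response testing for agonist activity of biased ligands at MC4R; human U2OS cells with tagged receptor and beta-arrestin; potency of agonists that increase receptor coupling to beta-arrestin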
[8] = molecular target: T3, Apoptotic protease-activating factor 1 (Homo sapiens, UniProt O14727); assay: SAR analysis of small molecule Activators of Apaf-1 in a Fluorescent assay.; format: functional; conditions: read-out: EC50_Mean;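 further: caspase-3 cleavage of fluorogenic Rh110 DEVD substrate downstream of apoptosome activation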
T3 sequence (O14727 whole entry): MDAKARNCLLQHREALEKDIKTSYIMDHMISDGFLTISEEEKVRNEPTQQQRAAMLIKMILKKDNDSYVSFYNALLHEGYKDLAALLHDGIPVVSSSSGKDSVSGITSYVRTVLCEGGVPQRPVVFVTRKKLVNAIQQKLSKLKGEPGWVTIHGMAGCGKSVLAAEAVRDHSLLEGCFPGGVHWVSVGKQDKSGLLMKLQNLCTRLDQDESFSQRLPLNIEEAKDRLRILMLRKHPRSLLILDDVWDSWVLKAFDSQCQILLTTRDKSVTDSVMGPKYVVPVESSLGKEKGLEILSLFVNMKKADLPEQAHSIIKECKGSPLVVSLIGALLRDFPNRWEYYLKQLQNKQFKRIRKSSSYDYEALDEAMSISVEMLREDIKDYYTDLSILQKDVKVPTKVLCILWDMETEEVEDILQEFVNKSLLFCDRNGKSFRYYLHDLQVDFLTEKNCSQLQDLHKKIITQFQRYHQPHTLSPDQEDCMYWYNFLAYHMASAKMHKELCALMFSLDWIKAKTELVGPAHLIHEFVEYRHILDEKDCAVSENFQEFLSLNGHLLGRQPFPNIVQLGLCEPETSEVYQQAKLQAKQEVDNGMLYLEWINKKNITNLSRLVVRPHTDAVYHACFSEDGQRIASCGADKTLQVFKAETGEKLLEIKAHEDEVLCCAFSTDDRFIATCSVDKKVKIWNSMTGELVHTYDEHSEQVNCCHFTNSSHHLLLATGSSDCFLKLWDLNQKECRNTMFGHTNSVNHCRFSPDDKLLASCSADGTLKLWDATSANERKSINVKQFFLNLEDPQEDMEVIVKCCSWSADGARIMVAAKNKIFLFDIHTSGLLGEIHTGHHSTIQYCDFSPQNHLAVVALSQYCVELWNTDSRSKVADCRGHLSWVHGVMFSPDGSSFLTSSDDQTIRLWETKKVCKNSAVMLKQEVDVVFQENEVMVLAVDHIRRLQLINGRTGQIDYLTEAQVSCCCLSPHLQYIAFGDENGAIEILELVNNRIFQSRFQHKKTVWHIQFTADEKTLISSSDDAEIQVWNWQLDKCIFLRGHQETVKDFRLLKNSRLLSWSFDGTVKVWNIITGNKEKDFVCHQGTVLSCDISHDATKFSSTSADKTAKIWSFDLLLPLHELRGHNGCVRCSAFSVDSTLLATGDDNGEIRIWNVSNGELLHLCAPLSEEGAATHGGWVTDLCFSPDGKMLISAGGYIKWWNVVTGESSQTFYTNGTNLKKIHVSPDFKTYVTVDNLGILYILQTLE

[9] = molecular target: T4, Polyadenylate-binding protein 1 (Homo sapiens, UniProt P11940); assay: MLLE binding blockers, Cy5 peptide tracer – biochemical, fluorescence polarization, Cy5-PAM2 peptide, secondary, miRNA deadenylation inhibitor project, dose response (AID 602260); format: functional; conditions: read-out: IC50_Mean
[10] = molecular target: T4, Polyadenylate-binding protein 1; assay: MLLE domain peptide-binding blockers, IC50 – biochemical, fluorescence polarization, FITC-PAM2 peptide, dose response (AID 602259); format: functional; conditions: read-out: IC50_Mean
[11] = NIH3T3 cell viability loss – ATP luminescence, mouse fibroblasts, counter-screen, dose response (AID 2010); format: functional, cell-based;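 further: cells exposed to compound for about 90 hours before reading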
Protein RecA = molecular target: T5, Protein RecA (Mycobacterium tuberculosis, UniProt P9WHJ3); assay: Fluorescence Cell-Free Homogeneous Dose Retest to Identify Inhibitors of RecA-Intein Splicing Activity. [Related pubchem assays (depositor defined):AID2097, AID2223, AID489010, AID492950]; format: functional
T5 sequence (P9WHJ3 whole entry): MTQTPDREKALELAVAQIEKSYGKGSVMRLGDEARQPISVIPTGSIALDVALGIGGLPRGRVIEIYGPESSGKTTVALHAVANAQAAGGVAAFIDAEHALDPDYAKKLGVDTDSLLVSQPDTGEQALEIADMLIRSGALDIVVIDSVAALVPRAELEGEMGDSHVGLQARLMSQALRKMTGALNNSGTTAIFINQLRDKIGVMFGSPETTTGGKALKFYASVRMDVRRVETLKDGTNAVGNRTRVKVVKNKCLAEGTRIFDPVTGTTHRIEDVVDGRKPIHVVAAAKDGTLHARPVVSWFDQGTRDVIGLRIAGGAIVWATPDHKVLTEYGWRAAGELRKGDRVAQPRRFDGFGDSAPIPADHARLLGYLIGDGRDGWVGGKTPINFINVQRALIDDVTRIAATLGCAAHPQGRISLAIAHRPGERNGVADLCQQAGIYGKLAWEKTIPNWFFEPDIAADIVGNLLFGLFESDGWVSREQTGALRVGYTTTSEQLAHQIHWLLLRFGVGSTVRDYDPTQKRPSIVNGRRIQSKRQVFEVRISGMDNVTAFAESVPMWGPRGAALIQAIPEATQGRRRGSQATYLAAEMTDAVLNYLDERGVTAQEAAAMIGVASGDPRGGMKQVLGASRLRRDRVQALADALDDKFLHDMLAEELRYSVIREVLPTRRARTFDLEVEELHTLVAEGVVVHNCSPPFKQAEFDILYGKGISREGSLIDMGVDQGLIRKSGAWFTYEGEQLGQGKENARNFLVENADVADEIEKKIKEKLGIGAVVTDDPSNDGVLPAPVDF

Melanocortin receptor 4 [12] = molecular target: T2, Melanocortin receptor 4; assay: inhibitors of MC4R cAMP signaling – cell-based, TR-FRET, biased antagonists, dose response (AID 602298); format: functional;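 further: antagonist potency against agonist-stimulated cAMP production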
[13] = molecular target: T6, Heat shock factor protein 1 (Mus musculus, UniProt P38532); assay: enhancement of HSF1-driven luciferase signal – cell-based, NIH3T3, luminescence, dose retest, confirmation (AID 435004); format: functional;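 further: stress induced by proteasome inhibitor MG132 added 30 min after compound; luciferase reporter driven by HSF1 response element in NIH3T3 cells; actives raise luminescence as potentiators of the MG132 stress response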
T6 sequence (P38532 whole entry): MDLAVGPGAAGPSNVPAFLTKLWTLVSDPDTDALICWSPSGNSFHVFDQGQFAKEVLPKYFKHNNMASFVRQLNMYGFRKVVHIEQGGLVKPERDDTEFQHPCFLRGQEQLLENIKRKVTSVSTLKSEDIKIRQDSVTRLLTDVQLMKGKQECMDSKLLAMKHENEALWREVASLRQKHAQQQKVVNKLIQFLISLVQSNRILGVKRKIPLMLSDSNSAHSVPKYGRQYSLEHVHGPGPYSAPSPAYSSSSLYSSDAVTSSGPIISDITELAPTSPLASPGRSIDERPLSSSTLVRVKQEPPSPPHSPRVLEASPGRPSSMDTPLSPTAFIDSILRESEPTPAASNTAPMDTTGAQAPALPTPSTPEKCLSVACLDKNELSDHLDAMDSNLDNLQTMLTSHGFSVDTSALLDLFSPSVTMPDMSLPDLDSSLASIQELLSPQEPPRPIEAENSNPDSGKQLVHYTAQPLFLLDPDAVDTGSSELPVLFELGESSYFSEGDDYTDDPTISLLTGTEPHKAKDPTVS

[14] = cAMP pathway inhibition in counterscreen cell line – TR-FRET cAMP detection, counter-screen for MC4R biased antagonist project, dose response (AID 602305); format: functional, cell-based;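 further: U2OS cells stimulated with forskolin near its EC80 as the cAMP inducer; potency is for inhibition of forskolin-stimulated cAMP signaling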
[15] = molecular target: T7, Replicative DNA helicase DnaB (Mycobacterium tuberculosis, UniProt P9WMR3); assay: DnaB intein splicing inhibitors, dose response, biochemical, cell-free fluorescence (AID 449749); format: functional
T7 sequence (P9WMR3 whole entry): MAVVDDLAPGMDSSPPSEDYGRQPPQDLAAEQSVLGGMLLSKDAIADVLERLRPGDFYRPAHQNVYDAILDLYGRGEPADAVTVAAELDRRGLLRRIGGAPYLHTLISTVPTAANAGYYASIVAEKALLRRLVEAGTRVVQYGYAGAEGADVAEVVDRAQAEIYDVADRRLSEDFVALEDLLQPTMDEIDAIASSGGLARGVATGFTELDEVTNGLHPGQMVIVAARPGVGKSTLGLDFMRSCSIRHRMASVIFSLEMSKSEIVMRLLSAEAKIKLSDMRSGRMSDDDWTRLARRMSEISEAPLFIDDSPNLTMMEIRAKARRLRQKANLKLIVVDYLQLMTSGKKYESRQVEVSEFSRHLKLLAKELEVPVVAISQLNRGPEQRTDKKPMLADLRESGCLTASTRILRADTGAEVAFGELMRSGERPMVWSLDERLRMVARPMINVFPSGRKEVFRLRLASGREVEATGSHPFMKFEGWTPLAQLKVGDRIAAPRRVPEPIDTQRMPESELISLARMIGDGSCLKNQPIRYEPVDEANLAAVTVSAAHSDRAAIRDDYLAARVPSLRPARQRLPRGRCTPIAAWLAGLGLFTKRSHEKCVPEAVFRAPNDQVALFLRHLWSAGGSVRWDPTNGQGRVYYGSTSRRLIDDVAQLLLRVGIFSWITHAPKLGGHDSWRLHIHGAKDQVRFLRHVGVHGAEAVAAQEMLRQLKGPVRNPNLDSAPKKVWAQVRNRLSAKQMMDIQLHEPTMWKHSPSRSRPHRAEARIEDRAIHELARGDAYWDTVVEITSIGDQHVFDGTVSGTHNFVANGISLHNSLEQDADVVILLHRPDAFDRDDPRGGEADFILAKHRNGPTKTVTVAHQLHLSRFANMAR

[16] = Trypanosoma cruzi growth suppression in host cells – NIH3T3 host cells, beta-gal luminescence, confirmation (AID 2044); format: functional, cell-based;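 further: intracellular parasites grown in NIH/3T3 mouse fibroblasts as host cells; luminescent beta-galactosidase reporter signal from transgenic T. cruzi replicating inside host cells; inhibitors lower the luminescence signal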
[17] = decrease of insulin promoter-GFP reporter – imaging, high-content screening, mouse beta cells (AID 1628); format: functional; conditions: MIN6
[18] = MIN6 cell viability loss – mouse insulinoma, cytotoxicity control, dose response (AID 2122); format: functional;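 further: confirmatory high-throughput counterscreen run to flag cytotoxic compounds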

T2 sequence (P32245 whole entry): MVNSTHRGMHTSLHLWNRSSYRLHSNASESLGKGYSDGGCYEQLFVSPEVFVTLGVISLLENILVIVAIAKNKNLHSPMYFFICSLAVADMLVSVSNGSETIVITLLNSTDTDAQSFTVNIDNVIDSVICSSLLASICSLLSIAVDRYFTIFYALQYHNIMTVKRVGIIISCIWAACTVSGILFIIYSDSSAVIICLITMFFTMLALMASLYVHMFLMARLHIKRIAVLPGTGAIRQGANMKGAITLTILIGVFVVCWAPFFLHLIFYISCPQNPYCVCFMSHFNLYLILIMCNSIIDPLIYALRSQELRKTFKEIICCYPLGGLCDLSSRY
Protein Wnt-3a, sequence (P27467 whole entry): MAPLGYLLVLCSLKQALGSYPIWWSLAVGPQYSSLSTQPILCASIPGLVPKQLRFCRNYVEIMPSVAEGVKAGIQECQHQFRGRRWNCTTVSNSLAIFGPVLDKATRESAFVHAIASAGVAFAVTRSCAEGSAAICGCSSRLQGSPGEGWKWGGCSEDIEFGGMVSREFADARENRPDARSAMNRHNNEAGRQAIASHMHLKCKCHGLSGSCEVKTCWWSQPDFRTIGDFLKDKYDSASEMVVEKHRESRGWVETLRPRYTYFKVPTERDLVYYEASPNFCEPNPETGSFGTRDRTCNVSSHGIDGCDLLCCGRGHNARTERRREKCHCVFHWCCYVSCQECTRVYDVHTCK
T4 sequence (P11940 whole entry, the tested form may be a part): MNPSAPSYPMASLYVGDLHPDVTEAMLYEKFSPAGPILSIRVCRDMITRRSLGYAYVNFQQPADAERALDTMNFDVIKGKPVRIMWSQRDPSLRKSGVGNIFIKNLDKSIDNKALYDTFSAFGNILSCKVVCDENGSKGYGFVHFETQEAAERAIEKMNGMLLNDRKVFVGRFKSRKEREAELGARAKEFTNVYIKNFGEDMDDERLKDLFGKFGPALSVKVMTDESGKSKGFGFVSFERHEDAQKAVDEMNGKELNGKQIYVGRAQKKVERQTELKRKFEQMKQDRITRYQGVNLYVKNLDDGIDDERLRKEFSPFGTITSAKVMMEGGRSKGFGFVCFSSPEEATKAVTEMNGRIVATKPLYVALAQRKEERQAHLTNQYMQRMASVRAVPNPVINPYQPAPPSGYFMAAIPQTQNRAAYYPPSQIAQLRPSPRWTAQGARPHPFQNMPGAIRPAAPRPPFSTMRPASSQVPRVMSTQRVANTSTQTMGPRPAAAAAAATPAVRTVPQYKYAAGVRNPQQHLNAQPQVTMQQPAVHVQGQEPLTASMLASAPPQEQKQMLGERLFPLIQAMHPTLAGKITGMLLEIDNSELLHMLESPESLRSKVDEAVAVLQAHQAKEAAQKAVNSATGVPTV

CC[N+](CC)(CC#Cc1ccccc1)CC#Cc1ccccc1
IC50 (Protein Wnt-3a): 35.2 µM (inactive)

CC1CC1C(=O)Nc1nc(-c2ccccn2)cs1 (configuration not stated)
AC50 [1]: 82.6 µM (active)

NC(Cc1ccc(Cl)cc1)c1csc(NC(=O)Nc2ccccc2)n1 (configuration not stated)
IC50 [2]: 4.07 µM (active) | EC50 (HEK293 [3]): > 59.6 µM (inactive) | IC50 [4]: 13.7 µM (inactive) | EC50 (HEK293 [5]): > 59.6 µM (inactive) | IC50 [6]: 2.09 µM (active) | EC50 (Melanocortin receptor 4 [7]): > 89.2 µM (inactive)

COc1ccc(C)cc1NC(=O)CCS(=O)(=O)c1ccc2c(c1)NC(=O)CS2
EC50 [8]: > 100 µM (inactive)

Cc1ccc(OCC(=O)NC(=S)Nc2cccc(NC(=O)c3ccccc3)c2)cc1
IC50 [9]: > 66 µM (inactive) | IC50 [10]: > 66 µM (inactive) | EC50 (Melanocortin receptor 4 [7]): > 89.2 µM (inactive)

O=C(CCl)c1ccc2c(c1)CCN2C(=O)C1CCCCC1
EC50 [11]: 6.6 µM (active) | EC50 (Protein RecA): 4.08 µM (active) | IC50 (Melanocortin receptor 4 [12]): > 64.6 µM (inactive) | EC50 [13]: 4.1 µM (inconclusive) | IC50 [14]: > 64.6 µM (inactive) | AC50 [15]: 42.4 µM (active) | EC50 [16]: 1.92 µM (active)

C=CCNc1nc2c(c(=O)n(C)c(=O)n2C)n1Cc1ccc(F)cc1
IC50 [17]: 1.13 µM (active) | IC50 (Protein Wnt-3a): 5.06 µM (active) | IC50 [18]: 892 nM (active)
